Legend:
nAChR = format: binding, bovine
[1] = test system: unmyelinated primary afferent sensory nerves; conditions: rat, in vivo

| Compound | displacement of 3H-epibatidine binding (nAChR) | other results |
| --- | --- | --- |
| Clc1ccc(C2CC3CCC2N3)cn1 (stereo not drawn) [^3H-epibatidine, epibatidine] | – | Hill coefficient of 3H-epibatidine binding (nAChR): 1.08 |
| C[N+](C)(C)CCOC(N)=O [carbachol] | displaced | – |
| CN1CCCC1c1cccnc1 (stereo not drawn) [nicotine] | displaced | – |
| C[N+]1(C)CCN(c2ccccc2)CC1.[I-] [DMPP, 1,1-dimethyl-4-phenylpiperazinium iodide] | displaced | – |
| Nc1cc[nH]c(=O)n1 [cytosine] | displaced | – |
| ω-conotoxin GVIA | – | inhibition of the vascular response to LFES of sensory nerves [1]: significant inhibition |

From US7348400B2 (priority 2001, dated 2008)
